Data as given in patent US12410153B2, “Compounds, compositions and methods” (Avalo Therapeutics, Inc., priority 2014, dated 2025).
Like-named read-outs stand apart in the source and are kept apart here.

Assay: Repeated once-daily oral dosing with food (Days 1-7) in healthy subjects, PK and PD
Format: in vivo, human
Settings: for mean plasma concentrations higher vs young age subgroup: Day 7, 2 to 24 hours postdose; for AUC(0-t) / Cmax / Vd/F / Tmax / AUC(0-inf) / half-life: plasma, oral; for Cmax: read-out: Cmax, Mean (SD); for AUC(0-inf): read-out: AUCinf, Mean (SD); for half-life: read-out: t1/2, Mean (SD) (converted)
Procedure: A randomized, double-blind, placebo-controlled, parallel-dose group in-patient study is conducted to investigate the pharmacodynamic (PD) effects of crystalline Form II of Compound (I) in healthy subjects.
The study is designed as a three-part, sequential study. The sequential nature of the study ensures that a range of doses are investigated first in a young, healthy population (Part 1) before proceeding to higher doses in the healthy population and the comparator populations (intermediate age and elderly) (Parts 2 and 3). For the purposes of this study, “young” refers to a subject who is 18 to 45 years of age, “intermediate age” refers to a subject who is 46 to 64 years of age, and “elderly” refers to a subject who is 65 years of age or older.
After a screening period of up to 21 days (Days −23 to −3), 16 healthy, young male and female subjects are randomly assigned to a dose group as shown in Table 9.
Each parallel dose group is balanced for gender (approximately equal number of males and females). The randomized subjects are domiciled from Day −1 through Day 8. On Day −1, the subjects receive placebo tablets in the fed state and undergo ambulatory blood pressure monitoring (ABPM) and safety assessments to establish time-matched baselines. On Days 1-7, the subjects receive the study drug in the fed state and undergo safety, pharmacokinetic (PK) and pharmacodynamics (PD) assessments. On Days 8-11, follow-up PK and safety assessments are performed.
Safety assessments include Clinician-Administered Dissociative States Scale (CADSS), Columbia-Suicide Severity Rating Scale (C-SSRS), concomitant medication, adverse event (AE) and vital sign assessments. In PK assessments, blood samples are taken and analyzed to determine PK parameters such as Cmax, Tmax, AUC0-24, and t1/2. PD assessments include ABPM, plasma brain-derived neurotrophic factor (BDNF) measurements, and Profile of Mood States (POMS) assessments.
After a screening period of up to 21 days (Days −23 to −3), 16 subjects (8 healthy, young male and female subjects, and 8 healthy, intermediate age male and female subjects) are randomly assigned to a dose group as shown in Table 10.
After a screening period of up to 21 days (Days −23 to −3), 16 subjects (8 healthy, young male and female subjects, and 8 healthy, elderly male and female subjects) are randomly assigned to a dose group as shown in Table 11.

[1] = female, human, females, all doses pooled, Day 7
[2] = females, all doses pooled, Day 1
[3] = females, all doses pooled, Day 7
[4] = male, human, males, all doses pooled, Day 7

In the case of Cc1ccc(COC(=O)N2CC[C@H](CNc3ncccn3)[C@H](F)C2)cc1 [Form II, 4-methylbenzyl (3S, 4R)-3-fluoro-4-[(pyrimidin-2-ylamino)methyl] piperidine-1-carboxylate], the “Dose-Normalized Cmax, Mean (SD)” value (elderly, 12 mg, Day 1) is reported as 29.11 (3.96) ng/mL/mg, the “AUC% extrap, Mean (SD)” value (elderly, 12 mg, Day 7) is reported as 9.70 (5.93) % and the “CL/F, Mean (SD)” value (elderly, 12 mg, Day 7) is reported as 2.79 (0.72) L/h. For the same compound, the “Dose-Normalized AUCinf, Mean (SD)” value (elderly, 12 mg, Day 7) was 858.67 (325.40) h * ng/mL/mg, the “Dose-Normalized Cmax, Mean (SD)” value (elderly, 12 mg, Day 7) was 29.11 (3.96) ng/mL/mg and the “apparent oral clearance lower vs young age group” value (elderly, Day 7) was “approximately 30%”. For the same compound, the “t½ higher vs young age group” value (elderly, Day 7) was about 38%, the “mean plasma concentrations higher vs young age subgroup” value (elderly) was about 40% and the AUC(0-t) (female, human, females, all doses pooled, Day 1, read-out: AUC0-24, Mean (SD)) was 2340 ng·h/mL. It also gave an AUC(0-t) (female, human, females, all doses pooled, Day 1, read-out: AUClast, Mean (SD)) of 2310 ng·h/mL, a Cmax (female, human, females, all doses pooled, Day 1) of 270 ng/mL and a Vd/F (female, human, females, all doses pooled, Day 1, read-out: Vz/F, Mean (SD)) of 182 L. It also gave a Tmax (female, human, females, all doses pooled, Day 1, read-out: tmax, Mean (SD)) of 2.26 h, a Tmax (female, human, females, all doses pooled, Day 1, read-out: tmax, Median) of 2 h and an AUC(0-t) (female, human, females, all doses pooled, Day 7, read-out: AUC0-24, Mean (SD)) of 4470 ng·h/mL. For the same compound, the AUC(0-inf) [1] was 9320 ng·h/mL, the AUC(0-t) (female, human, females, all doses pooled, Day 7, read-out: AUClast, Mean (SD)) was 8580 ng·h/mL and the Cmax [1] was 373 ng/mL. It also gave a Vd/F (female, human, females, all doses pooled, Day 7, read-out: Vss/F, Mean (SD)) of 105 L, a half-life [1] of 23.8 h and a Tmax (female, human, females, all doses pooled, Day 7, read-out: tmax, Mean (SD)) of 2.31 h. For the same compound, the Tmax (female, human, females, all doses pooled, Day 7, read-out: tmax, Median) was 2 h, the “Day 7/Day 1 Cmax Ratio, Mean (SD)” value (females, all doses pooled) was 1.38 (0.27) and the “Observed Accumulation Index, Mean (SD)” value (females, all doses pooled) was 1.88 (0.37). The “Steady State Accumulation Index, Mean (SD)” value (females, all doses pooled) was 1.10 (0.15), the “CL/F, Mean (SD)” value [2] was 5.79 (0.84) L/h and the “Dose-Normalized Cmax, Mean (SD)” value [2] was 20.59 (2.86) ng/mL/mg. For the same compound, the “AUC% extrap, Mean (SD)” value [3] was 6.76 (4.26) %, the “CL/F, Mean (SD)” value [3] was 3.19 (0.84) L/h and the “Dose-Normalized AUCinf, Mean (SD)” value [3] was 698.59 (282.19) h * ng/mL/mg. For the same compound, the “Dose-Normalized Cmax, Mean (SD)” value [3] was 27.98 (5.43) ng/mL/mg, the “effects on average nighttime SBP and DBP” value (human, in vivo) was “smaller and less consistently observed” and the “Day 7/Day 1 Cmax Ratio, Mean (SD)” value (intermediate age, 12 mg) was 1.41 (0.17). For the same compound, the “Observed Accumulation Index, Mean (SD)” value (intermediate age, 12 mg) was 1.92 (0.25), the “Steady State Accumulation Index, Mean (SD)” value (intermediate age, 12 mg) was 1.13 (0.16) and the “CL/F, Mean (SD)” value (intermediate age, 12 mg, Day 1) was 6.22 (1.34) L/h. The “Dose-Normalized Cmax, Mean (SD)” value (intermediate age, 12 mg, Day 1) was 21.42 (4.22) ng/mL/mg, the “AUC% extrap, Mean (SD)” value (intermediate age, 12 mg, Day 7) was 7.51 (1.85) % and the “CL/F, Mean (SD)” value (intermediate age, 12 mg, Day 7) was 3.27 (0.80) L/h. The “Dose-Normalized AUCinf, Mean (SD)” value (intermediate age, 12 mg, Day 7) was 675.34 (189.17) h * ng/mL/mg, the “Dose-Normalized Cmax, Mean (SD)” value (intermediate age, 12 mg, Day 7) was 30.03 (5.40) ng/mL/mg and the “apparent oral clearance lower vs young age group” value (intermediate age, Day 7) was “approximately 18%”. The “t½ higher vs young age group” value (intermediate age, Day 7) was “approximately 27%”, the “mean plasma concentrations higher vs young age subgroup” value (intermediate age) was “approximately 20%” and the AUC(0-t) (male, human, males, all doses pooled, Day 1, read-out: AUC0-24, Mean (SD)) was 2210 ng·h/mL. The AUC(0-t) (male, human, males, all doses pooled, Day 1, read-out: AUClast, Mean (SD)) was 2190 ng·h/mL, the Cmax (male, human, males, all doses pooled, Day 1) was 262 ng/mL and the Vd/F (male, human, males, all doses pooled, Day 1, read-out: Vz/F, Mean (SD)) was 147 L. For the same compound, the Tmax (male, human, males, all doses pooled, Day 1, read-out: tmax, Mean (SD)) was 2.12 h, the Tmax (male, human, males, all doses pooled, Day 1, read-out: tmax, Median) was 2 h and the AUC(0-t) (male, human, males, all doses pooled, Day 7, read-out: AUC0-24, Mean (SD)) was 3750 ng·h/mL. It also gave an AUC(0-inf) [4] of 6770 ng·h/mL, an AUC(0-t) (male, human, males, all doses pooled, Day 7, read-out: AUClast, Mean (SD)) of 6350 ng·h/mL and a Cmax [4] of 355 ng/mL. For the same compound, the Vd/F (male, human, males, all doses pooled, Day 7, read-out: Vss/F, Mean (SD)) was 108 L, the half-life [4] was 20.6 h and the Tmax (male, human, males, all doses pooled, Day 7, read-out: tmax, Mean (SD)) was 1.88 h. The Tmax (male, human, males, all doses pooled, Day 7, read-out: tmax, Median) was 1.75 h, the “Day 7/Day 1 Cmax Ratio, Mean (SD)” value (males, all doses pooled) was 1.36 (0.22) and the “Observed Accumulation Index, Mean (SD)” value (males, all doses pooled) was 1.72 (0.28). For the same compound, the “Steady State Accumulation Index, Mean (SD)” value (males, all doses pooled) was 1.15 (0.16), the “CL/F, Mean (SD)” value (males, all doses pooled, Day 1) was 6.19 (1.15) L/h and the “Dose-Normalized Cmax, Mean (SD)” value (males, all doses pooled, Day 1) was 19.78 (3.09) ng/mL/mg. For the same compound, the “AUC% extrap, Mean (SD)” value (males, all doses pooled, Day 7) was 6.06 (5.38) %, the “CL/F, Mean (SD)” value (males, all doses pooled, Day 7) was 3.74 (0.83) L/h and the “Dose-Normalized AUCinf, Mean (SD)” value (males, all doses pooled, Day 7) was 512.15 (188.98) h * ng/mL/mg. For the same compound, the “Dose-Normalized Cmax, Mean (SD)” value (males, all doses pooled, Day 7) was 26.21 (3.94) ng/mL/mg, the “steady-state predose plasma concentrations achieved by” value (repeated daily doses) was at most 5 study day and the “steady-state accumulation index, on average” value (seven days of daily dosing) was 1.1. For the same compound, the “Observed Accumulation Index, Mean (SD)” value (young subjects, 8 mg) was 1.58 (0.19), the “CL/F, Mean (SD)” value (young subjects, 8 mg, Day 1) was 5.36 (0.48) L/h and the “Dose-Normalized Cmax, Mean (SD)” value (young subjects, 8 mg, Day 1) was 22.42 (2.27) ng/mL/mg. The “AUC% extrap, Mean (SD)” value (young subjects, 8 mg, Day 7) was 8.61 (8.27) %, the “CL/F, Mean (SD)” value (young subjects, 8 mg, Day 7) was 3.37 (0.37) L/h and the “Dose-Normalized AUCinf, Mean (SD)” value (young subjects, 8 mg, Day 7) was 513.73 (174.76) h * ng/mL/mg. The “Dose-Normalized Cmax, Mean (SD)” value (young subjects, 8 mg, Day 7) was 28.00 (3.75) ng/mL/mg, the “Day 7/Day 1 Cmax Ratio, Mean (SD)” value (young subjects, 12 mg) was 1.15 (0.18) and the “Observed Accumulation Index, Mean (SD)” value (young subjects, 12 mg) was 1.65 (0.31). The “Steady State Accumulation Index, Mean (SD)” value (young subjects, 12 mg) was 1.01 (0.08), the “CL/F, Mean (SD)” value (young subjects, 12 mg, Day 1) was 6.46 (0.18) L/h and the “Dose-Normalized Cmax, Mean (SD)” value (young subjects, 12 mg, Day 1) was 19.92 (2.78) ng/mL/mg. The “AUC% extrap, Mean (SD)” value (young subjects, 12 mg, Day 7) was 4.77 (2.72) %, the “CL/F, Mean (SD)” value (young subjects, 12 mg, Day 7) was 4.00 (0.60) L/h and the “Dose-Normalized AUCinf, Mean (SD)” value (young subjects, 12 mg, Day 7) was 494.43 (177.79) h * ng/mL/mg. For the same compound, the “Dose-Normalized Cmax, Mean (SD)” value (young subjects, 12 mg, Day 7) was 22.79 (3.67) ng/mL/mg, the “Observed Accumulation Index, Mean (SD)” value (young subjects, 16 mg) was 1.70 (0.54) and the “CL/F, Mean (SD)” value (young subjects, 16 mg, Day 1) was 6.12 (0.90) L/h. The “Dose-Normalized Cmax, Mean (SD)” value (young subjects, 16 mg, Day 1) was 19.11 (1.97) ng/mL/mg, the “AUC% extrap, Mean (SD)” value (young subjects, 16 mg, Day 7) was 5.38 (5.13) % and the “CL/F, Mean (SD)” value (young subjects, 16 mg, Day 7) was 4.01 (1.21) L/h. The “Dose-Normalized AUCinf, Mean (SD)” value (young subjects, 16 mg, Day 7) was 501.47 (311.57) h * ng/mL/mg, the “Dose-Normalized Cmax, Mean (SD)” value (young subjects, 16 mg, Day 7) was 25.80 (4.07) ng/mL/mg and the “Observed Accumulation Index, Mean (SD)” value (young subjects, 20 mg) was 1.71 (0.22). The “CL/F, Mean (SD)” value (young subjects, 20 mg, Day 1) was 5.90 (1.31) L/h, the “Dose-Normalized Cmax, Mean (SD)” value (young subjects, 20 mg, Day 1) was 19.18 (2.87) ng/mL/mg and the “AUC% extrap, Mean (SD)” value (young subjects, 20 mg, Day 7) was 2.88 (1.30) %. The “CL/F, Mean (SD)” value (young subjects, 20 mg, Day 7) was 3.51 (0.97) L/h, the “Dose-Normalized AUCinf, Mean (SD)” value (young subjects, 20 mg, Day 7) was 523.40 (175.33) h * ng/mL/mg and the “Dose-Normalized Cmax, Mean (SD)” value (young subjects, 20 mg, Day 7) was 26.72 (4.88) ng/mL/mg.
